Source: patent US4935449A, “N-2,3-butadienyl tri- and tetraaminoalkane derivatives” (Merrell Dow Pharmaceuticals Inc., priority 1988, dated 1990)

What was measured:
Rat Liver Pao = Rat Liver Pao (Rattus norvegicus, UniProt A0A8I6AEP5); assay: In vitro inhibition of partially purified rat liver polyamine oxidase (PAO); assay type: biochemical
Procedure: Polyamine Oxidase Inhibition^1
Rat liver polyamine oxidase was purified by the procedure of Holtta, E.
step. Ki and .tau.50 were determined using the partially

PAO = PAO activity ex vivo in the liver of mice dosed i.p. 24 hours before; conditions: mouse liver, Dose 1.0 mg/kg i.p., control 18.7
From the text: MEASUREMENT OF PAO ACTIVITIES IN MOUSE TISSUES
Chim. Biophys. Acta 38: 69-76.

Plasmodia spp. [1] = conditions: in culture in vitro; cited from earlier work
P. berghei = conditions: cited from earlier work
T. b. brucei = conditions: in mice; cited from earlier work
ODC = conditions: cited from earlier work
Eimeria spp. = conditions: cited from earlier work
Pneumocystis carinii = conditions: cited from earlier work
Plasmodia spp. [2] = conditions: liver of infected mice; cited from earlier work
Plasmodia spp. [3] = conditions: cited from earlier work
P. gallinaceum = P. gallinaceum in chickens; cited from earlier work
L1210 cells = conditions: cited from earlier work
natural polyamines = conditions: exposure of cells; cited from earlier work
ODC and AdoMetDC = conditions: cited from earlier work

Sequence of Rat Liver Pao (A0A8I6AEP5 62-564): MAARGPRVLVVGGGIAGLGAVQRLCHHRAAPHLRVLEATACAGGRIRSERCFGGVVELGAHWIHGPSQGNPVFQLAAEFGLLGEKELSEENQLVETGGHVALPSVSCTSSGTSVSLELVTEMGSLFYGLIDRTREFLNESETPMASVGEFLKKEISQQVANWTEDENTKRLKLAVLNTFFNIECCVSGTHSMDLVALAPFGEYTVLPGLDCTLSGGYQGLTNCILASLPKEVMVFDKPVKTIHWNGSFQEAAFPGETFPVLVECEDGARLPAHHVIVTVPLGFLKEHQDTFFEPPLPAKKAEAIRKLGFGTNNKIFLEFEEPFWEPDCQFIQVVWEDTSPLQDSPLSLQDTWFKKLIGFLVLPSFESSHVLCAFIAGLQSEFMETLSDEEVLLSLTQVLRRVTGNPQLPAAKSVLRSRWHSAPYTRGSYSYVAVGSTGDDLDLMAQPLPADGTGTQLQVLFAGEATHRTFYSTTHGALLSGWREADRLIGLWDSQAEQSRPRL

Structure (SMILES) | .tau.50 (Rat Liver Pao) | PAO Activity (PAO) | support of growth of L1210 cells (L1210 cells) | depletion of the natural polyamines (natural polyamines) | repression of ODC and AdoMetDC (ODC and AdoMetDC) | further results
C=C=CCNCCCNCCCNCC=C=C [Compound 46] | 4.0 min | 1.0 p/mol/min/mg protein | – | – | – | –
C=C=CCNCCCNCCCCCCCCNCCCNCC=C=C [Compound 51] | 2.0 min | 4.1 p/mol/min/mg protein | – | – | – | –
NCCC[C@](N)(C(=O)O)C(F)F [DFMO, α-difluoromethylornithine] | – | – | – | – | – | erythrocytic replication (schizogony) (Plasmodia spp. [1]): block erythrocytic replication (schizogony) in culture in vitro; curative effect on erythrocytic forms of malaria in vivo (P. berghei; P. berghei in mice): no curative effects; parasitemia in P. berghei infections (P. berghei; P. berghei infections): significantly reduce parasitemia; cure of acute infections of T. b. brucei (T. b. brucei): totally cure acute infections; inhibition of ODC (ODC): inhibits ODC; sensitivity of Eimeria spp. (Eimeria spp.): sensitive; sensitivity of Pneumocystis carinii (Pneumocystis carinii): sensitive; exoerythrocytic schizogony in the liver (Plasmodia spp. [2]): inhibit the cycle in the liver of infected mice; sporogonous cycle in the mosquito vector (Plasmodia spp. [3]): completely inhibit the sporogonous cycle in the mosquito vector; curative effect on erythrocytic forms of malaria in vivo (P. gallinaceum): no curative effects
CCNCCCCNCCCNCC [N^1,N^8 -bis(ethyl)spermidine] | – | – | will not support growth of L1210 cells | leads to the depletion of the natural polyamines | mimic the action of their parent polyamines in the repression of ODC and AdoMetDC | –
CCNCCCNCCCCNCCCNCC [N^1,N^12 -bis(ethyl)spermine] | – | – | will not support growth of L1210 cells | leads to the depletion of the natural polyamines | mimic the action of their parent polyamines in the repression of ODC and AdoMetDC | –
